Entries after “also recorded” stand apart in the source; their conditions may differ.
How the values were obtained:
[1] = tested on: caspase-3 like protease activity in U-937 cells; assay: Caspase-3 activity assay (Ac-DEVD-pNA cleavage by cell lysates); format: cell-based, human; conditions: 100 μM
Experimental: Caspase-3 Activity Assay: The amount of caspase-3 like protease activity was determined by the amount of Ac-DEVD-pNA (N-acetyl-Asp-Glu-Val-Asp p-nitroanilide) cleaved per minute by cell lysates. To accomplish this, 100 μM of 13-D was added to cell culture flasks containing 50 mL of 10×10^6 U-937 cells/mL at 72, 48, 36, 24, 12 and 0 hours before harvesting. Cells were harvested by centrifugation, counted and diluted with RPMI 1640 media to a concentration of 4×10^6 cells/mL. 100 μL of the diluted cells were added to the wells of a 96-well plate in quadruplicate. The plate was then spun at 1000×g for 5 minutes to pellet the cells. […] The slope of the linear portion for each compound was then determined and any cleavage of the substrate in the control wells was subtracted out. The amount of Ac-DEVD-pNA cleaved in pmol/min was then calculated and plotted.
Apoptotic assays. […] Thus early stage (mitochondrial membrane depolarization), middle stage (caspase-3 like activation, PARP-1 cleavage) and late stage (chromatin condensation, phosphatidylserine exposure, membrane blebbing) biochemical events were monitored. […] Several dyes, including JC-9, have been developed that provide a sensitive readout on this process. […] The caspase-3-like activity of the cells can be monitored with peptidic substrates. […]

T cells = format: cell-based, mouse
From the text: Erythrocytes were selectively lysed and the T cells were highly enriched by using a mouse erythrocyte lysing kit and a mouse T cell enrichment column (R & D Systems, Minneapolis Minn.). FITC labeled anti-TCR antibodies were used to determine the purity of T cells in pre- and post-column samples. The T cells were enriched from approximately 35% to 90% of the total cell population (see FIG. 6A, 6B below). […] These cells were either stimulated to grow (by addition of ConA to a concentration of 2.5 μg/mL) or left untreated. […] After the 72 hours of incubation, 200 μL of cells were diluted in 300 μL PBS. Propidium iodide was then added to a concentration of 1 μg/mL. Cells were then incubated at room temperature for 5 minutes and analyzed by flow cytometry. The fluorescene intensity of each cell was determined at 620 nm (channel 3) and at least 50,000 cells were analyzed for each experiment (FIG. 7A, 7B, below). The data was then analyzed using Summit Software (Cytomation, Fort Collins Colo.) and the number of viable cells was determined. Non-concanavalin A stimulated T cells were also treated with 13-D, and viable cells in these samples were determined by PI staining (as above).
FIG. 7A illustrates flow cytometry data from Concanavalin A stimulated T cells; region R1 indicates 86.4% viable cells. […]

U-937 cells [2] = assay: Analysis of mitochondria depolarization by flow cytometry (JC-9 dye); format: cell-based, human
Experimental: Further experiments assessed whether the observed death from 12-D, 13-D, and 15-D was due to apoptosis or necrosis.
Analysis of Mitochondria Depolarization by Flow Cytometry: The depolarization of the mitochondrial membrane was measured by the fluorescence emitted by the JC-9 dye (Molecular Probes, Eugene Oreg.). 100 μM of 13-D or 10 μM etoposide in 1 μL of EtOH were added to cell culture flasks containing 50 mL of 10×10^6 U-937 cells/mL. […] 10 μg of the JC-9 dye was added to 1×10^6 cells in 1 mL and incubated at room temperature for 10 min. Cells were washed twice with PBS and resuspended in a final volume of 500 μL PBS. The fluorescence intensity of each cell was determined by flow cytometry at 525 nm (channel 1 green) and 675 nm (channel 4 red). 50,000 cells were analyzed in each experiment. The data was then analyzed using Summit Software (Cytomation, Fort Collins Colo.) and the number of cells within the upper left region, viable cells, was determined.
Apoptotic assays. To determine whether the observed death was due to apoptosis or necrosis, several apoptotic hallmarks were examined. Thus early stage (mitochondrial membrane depolarization), middle stage (caspase-3 like activation, PARP-1 cleavage) and late stage (chromatin condensation, phosphatidylserine exposure, membrane blebbing) biochemical events were monitored. The depolarization of mitochondrial membranes facilitates the release of pro-apoptotic proteins such as cytochrome c and AIF (apoptosis inducing factor) from the mitochondria into the cytosol. Several dyes, including JC-9, have been developed that provide a sensitive readout on this process. […] The release of pro-apoptotic stimuli from the mitochondria initiates a cascade of events that ultimately results in the activation of the “executioner” caspases, typically caspase-3 and caspase-7. The caspase-3-like activity of the cells can be monitored with peptidic substrates. […] PARP-1 cleavage. A final event in apoptosis is the exposure of phosphatidylserine on the outer leaflet of the cell membrane; this event allows for recognition of apoptotic cells by phagocytes, ultimately leading to the engulfment of the apoptotic cell and the recycling of the various cellular components.

in vitro = format: cell-based, human; conditions: human
U-937 cells [3] = assay: Microscopy of treated cells; format: cell-based, human; conditions: 100 μM
Experimental: Compound 13-D was added to make a final concentration of 100 μM. Pictures of the cells were taken at various times using a Carl Zeiss confocal microscope (Carl Zeiss, Thornwood N.Y.). Picture at 100×; FIG. 9B. Picture at 100×; FIG. 10A. Picture at 400×; FIG. 10B. Picture at 400×; FIG. 10C. Picture at 400×; and FIG. 11. Picture at 200×.

splenocytes = assay: Splenocyte toxicity assay (concanavalin A stimulated, MTS/PMS); conditions: 72 h
Experimental: For this experiment, the spleen from a euthanized mouse was harvested, and the splenocytes isolated.
Splenocyte Toxicity Assay: Splenocytes were isolated from the spleen of a 7-month old male C57Black/6 mouse and suspended in 1 mL RPMI 1640+10% FBS+2.5 μg/mL concanavalin A. These cells were counted and diluted so that 2.5×10^5 cells were seeded in to each well containing a total of 200 μL of media. […] 1 μL of EtOH was added to separate control wells. After 72 hours of incubation, 20 μL of the MTS/PMS CellTiter 96 Cell Proliferation Assay reagent (Promega, Madison Wis.) was added to each well. The plates were incubated at 37° C. for approximately two hours until the colored product formed and the absorbance was then measured at 490 nm in a Spectra Max Plus 384 plate reader (Molecular Devices, Sunnyvale Calif.).

U-937 cells [4] = assay: High-throughput cell death assay on library members (MTS/PMS); format: cell-based, human; conditions: library members at 100 μM, 24 hours
Experimental: A three-tiered system was devised to identify compounds that selectively induce apoptosis in cancer cells. First, all compounds were screened at 100 μM in a high-throughput manner for their ability to induce death in two cancer cell lines, HL-60 (leukemia) and U-937 (lymphoma).
Test compounds were transferred into the wells using a 96-pin transfer apparatus (V & P Scientific, San Diego Calif.) that transfers 0.2 μL of compound. The compounds were made up as 50 mM stock solutions in 100% EtOH, so one transfer gave a final concentration of 100 μM. Controls were performed in which only EtOH (containing no compound) was pin-transferred into wells containing cells. The cells were incubated with the compounds for 24 hours, and then cell death was quantitated.

cell cycle = assay: Cell cycle analysis, DNA content by flow cytometry of propidium iodide stained cells; format: cell-based; conditions: position of cell cycle arrest
Experimental: Cell cycle analysis and NCl screen. The data in FIG. 21 and Table 11 show potential structure-activity trends. Several amides derived from the triphenylacetic acid (TPA) and triphenylpropionic acid (TPP) building blocks induced a high degree of cell death in this assay. Experiments were conducted to determine the position on the cell cycle at which these compounds arrest cell growth. This is typically determined by assessing the DNA content as measured flow cytometry analysis of cells stained by propidium iodide. Flow cytometry data is presented in FIG. 22, along with control data. […] One of the active apoptotic inducers identified from this combinatorial library that was not derived from the TPA or TPP building blocks (x) also arrests cell growth in the G2/M phase as indicated by the data in FIG. 22B. However, compounds containing the triphenylacetic acid and triphenylpropionic acid building blocks all arrest cell growth in the G1 phase (FIG. 22C and FIG. 22D). Here compounds x and y correspond to compounds Z2 and Z3.

Row | Structure (SMILES) | caspase-3 activity [1] | viable cells, treated versus non-treated control cells (T cells) | observed death due to apoptosis or necrosis (U-937 cells [2]) | cell population in which apoptosis is induced (JC-9 staining) (U-937 cells [2]; 100 μM, 72 h) | IC50 at 72 h (in vitro) | microscopy, evidence of apoptosis (U-937 cells [3]) | toxicity towards actively dividing splenocytes (splenocytes; 500 μM) | IC50 (splenocytes; Mus musculus, Splenocyte, read-out: IC50 for non-cancerous splenocytes) | Induction of death in U-937 cells (percentages of cell death) (U-937 cells [4]) | cell cycle arrest (cell cycle)
1 | COc1cc(/C=C/C(=O)NC[C@@H](O)c2ccc(O)cc2)ccc1O [Compound 13-D, N-[2-(S)-Hydroxy-2-(4-hydroxy-phenyl)-ethyl]-3-(4-hydroxy-3-methoxy-phenyl)-acrylamide] | strong induction of caspase-3 activity | no difference was observed | induced apoptosis | over 70% | 44 µM | membrane blebbing and cell shrinkage | virtually no death; also recorded: virtually no toxicity | > 1000 µM | 87% | –
2 | CC(=O)O[C@H]1C(=O)[C@@]2(C)[C@H]([C@H](OC(=O)c3ccccc3)[C@]3(O)C[C@H](OC(=O)[C@H](O)[C@@H](NC(=O)c4ccccc4)c4ccccc4)C(C)=C1C3(C)C)[C@]1(OC(C)=O)CO[C@@H]1C[C@@H]2O [Taxol] | – | – | – | – | – | – | – | – | – | mitotic (M) phase arrest

From patent US7632972B2, “Compounds and methods for treatment of cancer and modulation of programmed cell death for melanoma and other cancer cells” (The Board of Trustees of the University of Illionis, priority 2003, dated 2009)
